# Reference: patent publication US7741124B2, “Detection procedures for fibrinogen and/or fibrinogen derivatives” (priority 2003, dated 2010)
# Tests used:
# Assay type in all cases: biochemical
# [1] = molecular target: T1, fibrinogen in human plasma (Homo sapiens, UniProt P02671+P02675+P02679); assay: Inactivation of fibrinogen by vancomycin or chloramine-T (FIFTA read-out); settings: 15 min 37° C. incubation in plasma, then FIFTA; read-out: IC50 against plasmatic fibrinogen
# T1 construct: 200 μl of 256% of norm active fibrinogen in P-Pool; from tissue; host or cells: pooled citrated human patient plasma (P-Pool / Fbgen-Pool)
# T1 sequence (P02671 20-629 isoform P02671-2 limits assumed): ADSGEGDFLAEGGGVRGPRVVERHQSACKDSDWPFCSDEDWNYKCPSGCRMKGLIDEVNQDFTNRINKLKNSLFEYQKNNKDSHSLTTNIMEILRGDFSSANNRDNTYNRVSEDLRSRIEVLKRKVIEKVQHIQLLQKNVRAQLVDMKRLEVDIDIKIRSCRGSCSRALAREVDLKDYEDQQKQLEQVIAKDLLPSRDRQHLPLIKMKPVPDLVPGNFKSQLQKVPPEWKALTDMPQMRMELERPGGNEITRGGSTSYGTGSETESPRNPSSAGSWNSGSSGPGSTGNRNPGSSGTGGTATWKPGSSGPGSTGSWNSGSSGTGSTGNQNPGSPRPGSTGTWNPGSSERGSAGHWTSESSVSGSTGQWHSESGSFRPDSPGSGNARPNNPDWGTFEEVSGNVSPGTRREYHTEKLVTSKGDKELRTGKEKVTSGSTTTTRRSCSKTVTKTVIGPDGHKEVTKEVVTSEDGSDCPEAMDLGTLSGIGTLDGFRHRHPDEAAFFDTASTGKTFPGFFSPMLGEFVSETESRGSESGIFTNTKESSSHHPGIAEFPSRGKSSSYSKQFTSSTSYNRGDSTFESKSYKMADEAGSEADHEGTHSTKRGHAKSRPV
# T1 sequence (P02675 31-491): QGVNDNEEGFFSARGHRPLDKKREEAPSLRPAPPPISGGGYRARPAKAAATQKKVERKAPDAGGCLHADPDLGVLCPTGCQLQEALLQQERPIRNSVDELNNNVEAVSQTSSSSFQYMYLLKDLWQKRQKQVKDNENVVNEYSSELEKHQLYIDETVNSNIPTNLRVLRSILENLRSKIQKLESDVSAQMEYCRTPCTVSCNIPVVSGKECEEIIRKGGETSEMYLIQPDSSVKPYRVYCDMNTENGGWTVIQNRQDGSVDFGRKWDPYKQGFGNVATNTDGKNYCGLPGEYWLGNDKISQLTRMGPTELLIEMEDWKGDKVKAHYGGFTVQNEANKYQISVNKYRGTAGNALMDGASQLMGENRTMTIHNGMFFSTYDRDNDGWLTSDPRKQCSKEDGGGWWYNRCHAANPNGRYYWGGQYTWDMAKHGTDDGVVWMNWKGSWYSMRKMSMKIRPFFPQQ
# T1 sequence (P02679 27-437 isoform P02679-2 limits assumed): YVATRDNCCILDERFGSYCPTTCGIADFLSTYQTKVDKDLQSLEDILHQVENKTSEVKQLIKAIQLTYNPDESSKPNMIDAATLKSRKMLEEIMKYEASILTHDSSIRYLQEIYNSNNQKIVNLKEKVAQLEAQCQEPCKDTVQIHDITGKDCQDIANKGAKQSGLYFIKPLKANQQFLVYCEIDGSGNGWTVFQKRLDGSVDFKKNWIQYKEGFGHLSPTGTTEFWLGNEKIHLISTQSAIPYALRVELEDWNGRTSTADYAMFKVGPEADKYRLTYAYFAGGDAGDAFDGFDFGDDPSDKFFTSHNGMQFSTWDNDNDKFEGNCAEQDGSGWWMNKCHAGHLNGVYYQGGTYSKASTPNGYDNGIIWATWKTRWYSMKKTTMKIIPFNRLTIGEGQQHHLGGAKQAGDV
# Protocol: 200 μl of 256% of norm active fibrinogen in P-Pool were incubated with 25 μl 0-100 mM vancomycin or 0-100 mM chloramine-T® in aqua dest. for 15 min (37° C.). 50 μl samples of these reaction mixtures were withdrawn and incubated with 100 μl 200 mIU/ml thrombin, 400 μg/ml Polybrene®, 6% BSA-PBS. The results were standardized by simultaneous analysis of 144% of norm active fibrinogen in P-Pool.
# [2] = test system: fibrinogen; assay: FIATA (vancomycin reactivity) of chloramine-T oxidized / EDTA-supplemented plasma; settings: EDTA-plasmas oxidized at 10-20 mM chloramine-T
# Protocol: To 25 μl plasma 50 μl PBS are added and the absorbance (405 nm) is determined (base value). Then 50 μl 4.4 mM vancomycin in PBS are added. The absorbance at 405 nm is determined after 2 min, if the reaction is performed at room temperature (23° C.). If the reaction is performed at 37° C., the second value is determined after 1 min. A microtiterplate reader (Milenia, DPC, Los Angeles, USA) is used. The increase in absorption (ΔA) is determined and the results are standardized against a pooled plasma of known, preferably of 100% of norm, fibrinogen-concentration, and against 0.9% NaCl (zero-value of turbidity) (Table 2).
# (§1) 25 μl P-Pool or P-Pool supplemented with 8.6 mM (3.2 g/l) EDTA were incubated with 25 μl 0-89 mM chloramine-T® in PBS for 60 min at RT. Then the FIATA and the FIFTA were performed. For the FIATA, 25 μl PBS were added and the absorbance at 405 nm was determined (base value). 50 μl 4.4 mM vancomycin in PBS were added and after 1 min (RT) the absorbance at 405 nm was determined again (Table 1). […] 100% control=P-Pool without oxidant.
# (§2) 25 μl P-Pool was incubated with 25 μl PBS or with 25 μl 2 mM CT in PBS. After 60 min RT, 25 μl 0-172 mM EDTA in PBS was added. After 5 min RT the FIATA and the FIFTA were performed as indicated in 2.7.
# [3] = molecular target: T2, fibrinogen (Homo sapiens, UniProt P02671+P02675+P02679); assay: FIFTA of chloramine-T oxidized / EDTA-supplemented plasma; settings: 60 min RT, P-Pool and EDTA supplemented P-Pool; read-out: chloramine-T concentration that inactivates 50% of fibrinogen in the FIFTA
# T2 construct: pooled patient plasma (P-Pool, n=32 single plasmas); from tissue; host or cells: pooled citrated patient plasma (P-Pool, Fbgen-Pool-Plasma)
# T2 sequence (P02671 20-644 isoform P02671-2 limits assumed): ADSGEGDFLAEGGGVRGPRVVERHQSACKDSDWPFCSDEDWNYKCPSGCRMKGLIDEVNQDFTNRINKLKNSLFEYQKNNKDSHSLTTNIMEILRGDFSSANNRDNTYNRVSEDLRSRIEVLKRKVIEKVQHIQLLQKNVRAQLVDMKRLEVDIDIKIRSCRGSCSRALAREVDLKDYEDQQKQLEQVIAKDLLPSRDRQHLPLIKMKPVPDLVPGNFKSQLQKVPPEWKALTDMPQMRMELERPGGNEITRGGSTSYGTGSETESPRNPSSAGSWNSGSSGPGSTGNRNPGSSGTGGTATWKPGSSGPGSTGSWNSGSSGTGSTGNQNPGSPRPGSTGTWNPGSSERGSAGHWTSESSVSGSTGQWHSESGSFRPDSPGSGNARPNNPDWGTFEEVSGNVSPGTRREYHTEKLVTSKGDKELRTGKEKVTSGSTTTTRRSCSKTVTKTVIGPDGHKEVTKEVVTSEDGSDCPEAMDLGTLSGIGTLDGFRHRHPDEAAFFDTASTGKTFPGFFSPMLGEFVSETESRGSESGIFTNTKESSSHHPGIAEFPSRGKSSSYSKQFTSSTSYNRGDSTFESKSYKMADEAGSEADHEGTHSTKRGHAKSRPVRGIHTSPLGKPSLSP
# T2 sequence (P02675 31-491): T1 sequence (P02675 31-491)
# T2 sequence (P02679 27-437 isoform P02679-2 limits assumed): T1 sequence (P02679 27-437 isoform P02679-2 limits assumed)
# Protocol: The absorption at 405 nm is immediately measured (base value) and exactly after 5 min, if the reaction is performed at room temperature (23° C.). If the reaction is performed at 37° C., the second value is measured after 2 min. A microtiterplate reader (Milenia, DPC, Los Angeles, USA) is used. The increase in absorption (ΔA) is determined and the results are standardized against a pooled plasma of known, preferably of 100% of norm, fibrinogen-activity (Table 1).
# as §1, §2
# [4] = molecular target: T3, thrombin (Bos taurus, UniProt P00735); assay: Inhibitory concentration 50% (IC50) of heparin against thrombin, FIFTA turbidity without Polybrene; settings: FIFTA system without Polybrene
# T3 construct: 100 μl 200 mIU/ml thrombin in 6% BSA-PBS (without Polybrene®)
# Protocol: 50 μl 100% Pool were added to 10 μl 0-160 IU/ml heparin. 100 μl 200 mIU/ml thrombin in 6% BSA-PBS (without Polybrene®) were added and the increase in absorbance at 405 nm was followed.
# [5] = molecular target: T3, thrombin; assay: Inhibitory time point 50% (ITP50) of 10 IU/ml heparin-thrombin interaction; settings: 10 IU/ml final heparin
# Protocol: 50 μl P-Pool were incubated with 100 μl 200 miU/ml thrombin in 6% BSA-PBS (without Polybrene®). At 0 min (prior to thrombin addition) and 0.5-11 min reaction time (at RT) 10 μl 160 IU/ml heparin in 6% BSA-PBS was added (final heparin conc. in plasma+thrombin reagent=10 IU/ml; this heparin conc. increased the absorbance by 20 mA; all test results were corrected by this heparin induced turbidity increase). The turbidity increase at 405 nm was determined immediately after each heparin addition step and as a function of incubation time.
# To determine the heparin addition time point (at RT) that is needed to decrease the 5 min, 10 min, 15 min or 20 min turbidity increase by 50% (inhibitory time point 50%=ITP), 50 μl P-Pool were incubated with 100 μl 200 mIU/ml thrombin in 6% BSA-PBS (without Polybrene®). After 0 s (prior to thrombin addition) and 10-140 s (in 10 s intervals) 10 μl 160 IU/ml heparin in 6% BSA-PBS were added. The turbidity increase at 405 nm as a function of incubation time (3-20 min) was determined.
Compound,IC50 [1],"increase of reactivity with vancomycin, % of the citrate control value [2]",IC50 [3],heparin concentrations that completely inhibit thrombin [4],time window in which heparin can inhibit fibrin generation ([5]; RT),time point of heparin addition that results into a 50% decrease of ΔA (ITP50) ([5]; ΔA at 5-20 min incubation time (RT))
"Cc1ccc(S(=O)(=O)[N-]Cl)cc1.[Na+] [chloramine-T®, chloramine-T]",~2000 µM,40%,2000 µM,–,–,–
heparin,–,–,–,≥ 0.63 IU/ml,≤ 2 min,approximately 30 s
